These molecules were tested against T1, MerTK (Homo sapiens, UniProt Q12866) (assay: MerTk degradation in Jurkat cells (Western blot)). Details: Jurkat, 4 h, 0.001-1 μM, 4 hour-incubation at 37° C., read-out: Jurkat Max % MerTK Degradation.
T1 construct: endogenous in cells; host or cells: Jurkat cells
T1 sequence (Q12866 21-999): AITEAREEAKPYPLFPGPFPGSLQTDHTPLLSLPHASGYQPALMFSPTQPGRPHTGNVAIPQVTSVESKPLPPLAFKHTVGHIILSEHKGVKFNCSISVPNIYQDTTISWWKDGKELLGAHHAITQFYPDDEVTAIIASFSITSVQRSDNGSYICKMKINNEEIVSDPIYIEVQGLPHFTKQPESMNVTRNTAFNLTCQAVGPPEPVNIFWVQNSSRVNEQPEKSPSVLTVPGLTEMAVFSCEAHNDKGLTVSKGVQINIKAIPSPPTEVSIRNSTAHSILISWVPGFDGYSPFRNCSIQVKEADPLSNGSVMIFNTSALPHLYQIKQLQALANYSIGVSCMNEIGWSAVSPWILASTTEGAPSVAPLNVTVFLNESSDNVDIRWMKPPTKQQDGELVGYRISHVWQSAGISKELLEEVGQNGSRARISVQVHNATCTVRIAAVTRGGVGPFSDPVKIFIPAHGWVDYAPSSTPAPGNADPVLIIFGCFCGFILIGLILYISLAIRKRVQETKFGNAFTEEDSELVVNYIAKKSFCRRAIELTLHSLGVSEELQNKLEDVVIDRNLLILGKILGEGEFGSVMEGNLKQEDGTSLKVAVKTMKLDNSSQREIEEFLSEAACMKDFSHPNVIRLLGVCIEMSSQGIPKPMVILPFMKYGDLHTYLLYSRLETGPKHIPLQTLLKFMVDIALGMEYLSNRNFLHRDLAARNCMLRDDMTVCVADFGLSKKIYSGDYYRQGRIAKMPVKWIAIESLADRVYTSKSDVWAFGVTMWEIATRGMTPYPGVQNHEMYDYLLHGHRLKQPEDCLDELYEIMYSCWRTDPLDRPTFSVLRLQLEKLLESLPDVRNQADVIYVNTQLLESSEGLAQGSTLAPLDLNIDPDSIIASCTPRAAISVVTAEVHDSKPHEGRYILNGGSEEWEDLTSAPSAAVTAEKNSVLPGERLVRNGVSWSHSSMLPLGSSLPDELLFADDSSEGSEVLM
Format: cell-based
Summary of the method: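 Jurkat cells treated 4 h at 37 °C with compound at 0.001-1 μM final. RIPA lysates quantified by BCA, then MerTK probed by Western blot against actin loading control with IR-dye secondaries and Odyssey imaging.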

Row | SMILES | Dmax [%]
1 | Cn1c(=O)n([C@H]2CCC(=O)NC2=O)c2cccc(CN3CCC(CC4CCN(Cc5ccc(-c6cn([C@H]7CC[C@H](O)CC7)c7nc(NCCC(F)(F)F)ncc67)cc5)CC4)CC3)c21 [I-159, 3-(3-methyl-2-oxo-4-[[4-([1-[(4-[7-[trans-4-hydroxycyclohexy1]-2-[(3,3,3-trifluoropropyl)amino]pyrrolo[2,3-d]pyrimidin-5-y1]phenyl)methyl]piperidin-4-y1]methyl)piperidin-1-yl]methyl]-1,3-benzodiazol-1-yl)piperidine-2,6-dione] | > 50
2 | Cn1c(=O)n(C2CCC(=O)NC2=O)c2ccc(CCCOCC(F)CN3CCN(Cc4ccc(-c5cn([C@H]6CC[C@H](O)CC6)c6nc(NCCC(F)(F)F)ncc56)cc4)CC3)cc21 (stereo partly drawn) [I-160, 3-[5-[3-(2-fluoro-3-[4-[(4-[7-[trans-4-hydroxycyclohexy1]-2-[(3,3,3-trifluoropropyl)amino]pyrrolo[2,3-d]pyrimidin-5-yl]phenyl)methyl]piperazin-1-yl]propoxy)propyl]-3-methyl-2-oxo-1,3-benzodiazol-1-yl]piperidine-2,6-dione] | > 50
3 | Cn1c(=O)n([C@H]2CCC(=O)NC2=O)c2ccc(CCCOCCOC3CCN(C[C@H]4CC[C@H](c5cn([C@H]6CC[C@H](O)CC6)c6nc(NCCC(F)(F)F)ncc65)CC4)CC3)cc21 [I-163] | > 50
4 | Cc1ncsc1-c1ccc(CNC(=O)[C@@H]2C[C@@H](O)CN2C(=O)[C@@H](NC(=O)COCCOCCN2CCN(Cc3ccc(-c4cn([C@H]5CC[C@H](O)CC5)c5nc(NCCC(F)(F)F)ncc45)cc3)CC2)C(C)(C)C)cc1 [I-165, (2S,4R)-1-[(2S)-3,3-dimethyl-2-[2-[2-(2-[4-[(4-[7-[trans-4-hydroxycyclohexyl]-2-[(3,3,3-trifluoropropyl)amino]pyrrolo[2,3-d]pyrimidin-5-yl]phenyl)methyl]piperazin-1-yl]ethoxy)ethoxy]acetamido]butanoyl]-4-hydroxy-N-[[4-(4-methyl-1,3-thiazol-5-yl)phenyl]methyl]pyrrolidine-2-carboxamide] | < 20
5 | CN(C)c1cccc2c(S(=O)(=O)Nc3cccc(-c4cnc(NCCOCCOCCN5CCN(Cc6ccc(-c7cn([C@H]8CC[C@H](O)CC8)c8nc(NCCC(F)(F)F)ncc78)cc6)CC5)nc4N4CCC(c5ccccc5)C4C(=O)O)c3)cccc12 (stereo partly drawn) [I-168, 1-(5-[3-[5-(Dimethylamino)naphthalene-1-sulfonamido]phenyl]-2-([2-[2-(2-[4-[(4-[7-[trans-4-hydroxycyclohexyl]-2-[(3,3,3-trifluoropropyl)amino]pyrrolo[2,3-d]pyrimidin-5-yl]phenyl)methyl]piperazin-1-yl]ethoxy)ethoxy]ethyl]amino)pyrimidin-4-yl)-3-phenylpyrrolidine-2-carboxylic acid] | < 20
6 | Cn1c(=O)n([C@H]2CCC(=O)NC2=O)c2ccc(CCO[C@H]3C[C@H](N4CCN(Cc5ccc(-c6cn([C@H]7CC[C@H](O)CC7)c7nc(NCCC(F)(F)F)ncc67)cc5)CC4)C3)cc21 [I-170, 3-(3-methyl-2-oxo-5-[2-[trans-3-[4-[(4-[7-[trans-4-hydroxycyclohexy1]-2-[(3,3,3-trifluoropropyl)amino]pyrrolo[2,3-d]pyrimidin-5-yl]phenyl)methyl]piperazin-1-yl]cyclobutoxy]ethyl]-1,3-benzodiazol-1-y1)piperidine-2,6-dione; formic acid] | > 50

Results, then the molecule that gave them:

Row | Dmax [%] | SMILES
7 | > 50 | Cn1c(=O)n(C2CCC(=O)NC2=O)c2ccc(CN3CCN([C@H]4CCN(Cc5ccc(-c6cn([C@H]7CC[C@H](O)CC7)c7nc(NCCC(F)(F)F)ncc67)cc5)C4)CC3)cc21 (stereo partly drawn) [I-158, 3-[3-methyl-2-oxo-5-([4-[(3R)-1-[(4-[7-[trans-4-hydroxycyclohexy1]-2-[(3,3,3-trifluoropropyl)amino]pyrrolo[2,3-d]pyrimidin-5-y1]phenyl)methyl]pyrrolidin-3-y1]piperazin-1-yl]methyl)-1,3-benzodiazol-1-yl]piperidine-2,6-dione]
8 | < 20 | Cc1ncsc1-c1ccc(CNC(=O)[C@@H]2C[C@@H](O)CN2C(=O)[C@@H](NC(=O)CCCCCN2CCN(Cc3ccc(-c4cn([C@H]5CC[C@H](O)CC5)c5nc(NCCC(F)(F)F)ncc45)cc3)CC2)C(C)(C)C)cc1 [I-161, (2S,4R)-1-[(2S)-3,3-dimethyl-2-(6-[4-[(4-[7-[trans-4-hydroxycyclohexyl]-2-[(3,3,3-trifluoropropyl)amino]pyrrolo[2,3-d]pyrimidin-5-yl]phenyl)methyl]piperazin-1-yl]hexanamido)butanoyl]-4-hydroxy-N-[[4-(4-methyl-1,3-thiazol-5-yl)phenyl]methyl]pyrrolidine-2-carboxamide]
9 | < 20 | Cc1ncsc1-c1ccc(CNC(=O)[C@@H]2C[C@@H](O)CN2C(=O)[C@@H](NC(=O)CCCCCCN2CCN(Cc3ccc(-c4cn([C@H]5CC[C@H](O)CC5)c5nc(NCCC(F)(F)F)ncc45)cc3)CC2)C(C)(C)C)cc1 [I-162, (2S,4R)-1-[(2S)-3,3-dimethyl-2-(7-[4-[(4-[7-[trans-4-hydroxycyclohexyl]-2-[(3,3,3-trifluoropropyl)amino]pyrrolo[2,3-d]pyrimidin-5-yl]phenyl)methyl]piperazin-1-yl]heptanamido)butanoyl]-4-hydroxy-N-[[4-(4-methyl-1,3-thiazol-5-yl)phenyl]methyl]pyrrolidine-2-carboxamide]
10 | > 50 | Cn1c(=O)n([C@H]2CCC(=O)NC2=O)c2ccc(CCCOCCOCCC3CCN(C[C@H]4CC[C@H](c5cn([C@H]6CC[C@H](O)CC6)c6nc(NCCC(F)(F)F)ncc65)CC4)CC3)cc21 [I-164, 3-[3-methyl-2-oxo-5-(3-[2-[2-(1-[[trans-4-[7-[trans-4-hydroxycyclohexyl]-2-[(3,3,3-trifluoropropyl)amino]pyrrolo[2,3-d]pyrimidin-5-yl]cyclohexyl]methyl]piperidin-4-yl)ethoxy]ethoxy]propyl)-1,3-benzodiazol-1-y1]piperidine-2,6-dione]
11 | > 50 | Cc1ncsc1-c1ccc(CNC(=O)[C@@H]2C[C@@H](O)CN2C(=O)[C@@H](NC(=O)COCCOCCOCCN2CCN(Cc3ccc(-c4cn([C@H]5CC[C@H](O)CC5)c5nc(NCCC(F)(F)F)ncc45)cc3)CC2)C(C)(C)C)cc1 [I-166, (2S,4R)-1-[(2S)-3,3-dimethyl-2-(2-[2-[2-(2-[4-[(4-[7-[trans-4-hydroxycyclohexyl]-2-[(3,3,3-trifluoropropyl)amino]pyrrolo[2,3-d]pyrimidin-5-yl]phenyl)methyl]piperazin-1-yl]ethoxy)ethoxy]ethoxy]acetamido)butanoyl]-4-hydroxy-N-[[4-(4-methyl-1,3-thiazol-5-yl)phenyl]methyl]pyrrolidine-2-carboxamide]
12 | < 20 | CN(C)c1cccc2c(S(=O)(=O)Nc3cccc(-c4cnc(NCCOCCN5CCN(Cc6ccc(-c7cn([C@H]8CC[C@H](O)CC8)c8nc(NCCC(F)(F)F)ncc78)cc6)CC5)nc4N4CCC(c5ccccc5)C4C(=O)O)c3)cccc12 (stereo partly drawn) [I-167, 1-(5-[3-[5-(Dimethylamino)naphthalene-1-sulfonamido]phenyl]-2-[[2-(2-[4-[(4-[7-[trans-4-hydroxycyclohexyl]-2-[(3,3,3-trifluoropropyl)amino]pyrrolo[2,3-d]pyrimidin-5-yl]phenyl)methyl]piperazin-1-yl]ethoxy)ethyl]amino]pyrimidin-4-yl)-3-phenylpyrrolidine-2-carboxylic acid]
13 | < 20 | CN(C)c1cccc2c(S(=O)(=O)Nc3cccc(-c4cnc(NCCOCCOCCOCCN5CCN(Cc6ccc(-c7cn([C@H]8CC[C@H](O)CC8)c8nc(NCCC(F)(F)F)ncc78)cc6)CC5)nc4N4CCC(c5ccccc5)C4C(=O)O)c3)cccc12 (stereo partly drawn) [I-169, 1-(5-[3-[5-(dimethylamino)naphthalene-1-sulfonamido]phenyl]-2-(12-[4-[(4-[7-[trans-4-hydroxycyclohexyl]-2-[(3,3,3-trifluoropropyl)amino]pyrrolo[2,3-d]pyrimidin-5-yl]phenyl)methyl]piperazin-1-yl]-4,7,10-trioxa-1-azadodecan-1-yl)pyrimidin-4-yl)-3-phenylpyrrolidine-2-carboxylic acid]
14 | > 50 | Cn1c(=O)n([C@H]2CCC(=O)NC2=O)c2ccc(CCCOCCOC3CCN(C[C@H]4CC[C@@H](c5cn([C@H]6CC[C@H](O)CC6)c6nc(NCCC(F)(F)F)ncc65)CC4)CC3)cc21 [I-171, 3-[3-methyl-2-oxo-5-(3-[2-[(1-[[cis-4-[7-[trans-4-hydroxycyclohexyl]-2-[(3,3,3-trifluoropropyl)amino]pyrrolo[2,3-d]pyrimidin-5-yl]cyclohexyl]methyl]piperidin-4-yl)oxy]ethoxy]propyl)-1,3-benzodiazol-1-y1]piperidine-2,6-dione]

— patent US20260042762A1 (Kymera Therapeutics, Inc., priority 2018, published 2026)
